Source: US20220079912A1, “ANTICANCER FORMULATION” (University of Mississippi, priority 2018, published 2022)

Experiments:
MDA-MB-231 cells = experiment: Glucose transport (2-NBDG accumulation); assay type: cell-based, human; details: MDA-MB-231, treated for one hour followed by 2-NBDG for one hour
From the text: Phloretin, a known glucose transport inhibitor, was used as a positive control. Accumulation of 2-NDGB was inhibited by phloretin by 54% in T98G cells, by 31% in B16 cells and by 74% in MDA-MB-231 cells. The first panel for each cell line represents unstained cells, the second stained with 2-NBDG for one hour, the third treated with GH for one hour followed by 2-NBDG for one hour and the fourth treated with phloretin for one hour followed by 2-NBDG for one hour.

[1] = tested on: BNC16 patient derived Glioblastoma cells; experiment: Colony formation assay, combination with DHEA; assay type: cell-based, human; details: BNC16, 24 h, FIG. 20
[2] = tested on: cancer stem cells (CSCs) grown from BNC3 patient derived Glioblastoma cells; experiment: Cell viability by Trypan Blue exclusion cell count, combination with DHEA; assay type: cell-based, human; details: 24 h, FIGS. 21A-B
SK-OV3 = experiment: Combination cytotoxicity with phenformin; assay type: cell-based; details: SK-OV3, data not shown
T98G cells = experiment: Combination cytotoxicity with mitochondrial complex I inhibitors (% cell survival)
From the text: Example 2: Gnetin H In Combination with Mitochondrial Complex I Inhibitors. […] The plus signs above the combination treatment bars indicates the value of % cell survival if the anti-proliferative effect was additive.
In FIGS. 9 A-B., the plus signs are placed above the combination treatment bars at the % cell survival value if the anti-proliferative effect was additive. […] Both T98G and MDA-MB-231 cells lack functional p53 but B16 are p53 wild type.
Example 4: Peony Seed extract. […] T98G cells were treated with different concentrations of purified GH (numbers indicate μM) or PSE (numbers indicate μg/ml) alone or in combination with a Paw Paw (PP) extract (2 μg/ml) for 48 hrs (FIG. 12 A). The plus signs are placed above the combination treatment bars at the % cell survival value if the anti-proliferative effect was additive. […] T98G cells were treated with different concentrations of purified GH or PSE in combination with a Paw Paw extract (2 μg/ml) for 48 hrs (FIG. 12 B).

U87MG Glioma cells = experiment: Colony formation assay, combination with DHEA; assay type: cell-based, human; details: 24 h, FIG. 20
TXNIP mRNA = experiment: Differential gene expression analysis (RNA-Seq) in T98G cells; assay type: cell-based, human; details: 2 hours, GH 8 μM, 2-DG 25 mM, Ph 100, minus = reduced, plus = increase, NC = no change
From the text: GH inhibits expression of TXNIP and ARRDC4 mRNAs. […] Since the transcription factors (MondoA/Mlx complex) regulating the expression of the TXNIP gene is thought to be controlled by intermediates in the upper portion of the glycolytic pathway (12), GH may be negatively impacting this portion of glycolysis. Reduction in the levels of these intermediates by GH would prevent activation of the MondoA/Mlx transcription complex and would result in suppression of TXNIP transcription and TXNIP mRNA levels. Both of these gene products (TXNIP and ARRDC4) are thought to suppress glucose transport by enhancing degradation of glucose transporters (12).

T98G glioblastoma cells = experiment: Cell proliferation / cell survival; assay type: cell-based, human; details: varying concentrations, 48 hours, dose dependent, FIG. 1
Description: B16 mouse melanoma cells, T98G glioblastoma cells, and MDA-MB-231 human breast cancer cells were treated with varying concentrations of GH for 48 hours with cell survival measured.

B16 cells = experiment: Glucose transport (2-NBDG accumulation); assay type: cell-based, mouse; details: B16, treated for one hour followed by 2-NBDG for one hour
BT-549 = experiment: Combination cytotoxicity with phenformin; assay type: cell-based; details: BT-549, data not shown

## Oc1ccc(/C=C/c2c3c(cc4c2[C@H](c2cc(O)cc(O)c2)[C@@H](c2ccc(O)cc2)O4)O[C@H](c2ccc(O)cc2)[C@H]3c2cc(O)cc(O)c2)cc1 (relative stereo) [GH, trans-Gnetin H]
MDA-MB-231 cells
  effect on accumulation of 2-NBDG (glucose transport): did not influence the accumulation
[1]
  cytotoxicity in combination with DHEA (cell staining): cytotoxic
[2]
  cytotoxicity in combination with DHEA (percentage of cell viability): cytotoxic
SK-OV3
  synergistic cytotoxicity with phenformin: synergistically cytotoxic
T98G cells
  synergistic cytotoxicity in combination with Paw Paw (PP) extract (2 μg/ml): exhibited synergistic cytotoxicity
  synergistic cytotoxicity in combination with acetogenins (PP) at 1 μg/ml: synergistically cytotoxic
T98G cells; T98G, Paw Paw extract 2 μg/ml, 48 hrs, FIG. 12 B
  IC50 in combination with PP: 1.3 µg/mL
U87MG Glioma cells
  cytotoxicity in combination with DHEA (cell staining): cytotoxic
TXNIP mRNA
  TXNIP mRNA fold change: −88 fold
T98G glioblastoma cells
  inhibition of cell proliferation (cell survival): inhibits the proliferation
B16 cells
  effect on accumulation of 2-NBDG (glucose transport): did not influence the accumulation
BT-549
  synergistic cytotoxicity with phenformin: synergistically cytotoxic
